Results taken from paper PMC11859825, “Discovery of Sphingosine Kinase Inhibition by Modified Quinoline-5,8-Diones” (Pharmaceuticals, 2025).
Values joined by “and” are separate entries in the source; they are usually repeats but may differ in a detail not shown here. Equal values may be shown once. Read-outs that look alike come from different tables or passages of the source.

Tests used:
SphK1 = settings: cited from earlier work
[1] = test system: A498 kidney adenocarcinoma cells; set-up: method as in PMID 22970244; settings: read-out: EC50, reduced proliferation; cited from earlier work
SphK2 = settings: cited from earlier work
NCI-60 cell line panel = assay: NCI60 one-dose anticancer screen; type: cell-based, human; settings: 10 μM, mean growth percentage across 60 cell lines
Description: A preliminary anticancer study was conducted through the National Cancer Institute 60 human tumour cell line panel (NCI60) on a representative selection of the aryl-ether quinoline-5,8-diones (Table 2). […].
One-dose study: Tested compounds were initially solubilised in DMSO, diluted into RPMI 1640 and 5% fetal bovine serum/L-glutamine and added to 96-well plates containing cell lines previously cultured for 24 h. After 48 h of incubation, the media were removed, and the cells were fixed and stained with sulforhodamine B to determine overall percent growth/total protein content. Unbound dye was removed with five washes of 1% acetic acid, and the plates were allowed to air dry. The dye was then resolubilised in Tris buffer, and the colourimetric absorbance was measured (515 nm). Growth inhibition was measured relative to the response generated from proliferating cells cultured under identical conditions for 48 h. Data from one-dose experiments pertain to the percentage growth at 10 μM [60, 61].

recombinant human SphK2 = molecular target: T1, recombinant human SphK2 (Homo sapiens, UniProt Q9NRA0); assay: Fluorometric NBD-sphingosine sphingosine kinase inhibition assay, SphK2; settings: for IC50: IC50 against SphK2
T1 sequence (Q9NRA0 1-654): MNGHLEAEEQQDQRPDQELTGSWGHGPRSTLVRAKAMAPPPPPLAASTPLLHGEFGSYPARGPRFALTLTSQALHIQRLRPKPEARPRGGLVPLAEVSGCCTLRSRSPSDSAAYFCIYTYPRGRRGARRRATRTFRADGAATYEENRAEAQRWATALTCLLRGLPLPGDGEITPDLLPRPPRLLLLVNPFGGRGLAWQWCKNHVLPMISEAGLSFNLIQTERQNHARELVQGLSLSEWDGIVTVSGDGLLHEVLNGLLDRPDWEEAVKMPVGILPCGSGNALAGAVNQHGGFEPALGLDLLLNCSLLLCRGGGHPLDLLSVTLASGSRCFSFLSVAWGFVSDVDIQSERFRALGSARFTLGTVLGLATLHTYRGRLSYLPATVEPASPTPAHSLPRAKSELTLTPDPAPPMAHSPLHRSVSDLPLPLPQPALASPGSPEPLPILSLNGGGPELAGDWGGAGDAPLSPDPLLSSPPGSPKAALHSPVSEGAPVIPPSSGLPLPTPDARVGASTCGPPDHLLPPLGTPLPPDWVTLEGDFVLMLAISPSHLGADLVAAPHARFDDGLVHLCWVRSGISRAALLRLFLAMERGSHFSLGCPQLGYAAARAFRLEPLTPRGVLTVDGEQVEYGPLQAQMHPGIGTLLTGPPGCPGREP
Description: (§1) The fluorescence-based assay involved incubating the quinoline-5,8-diones with SphK isoforms individually (recombinant SphK1 and SphK2 in duplicate) [41].
(§2) The relevant enzymes and inhibitors were incubated in total reaction volumes of 100 µL with 10 µM NBD-sphingosine, 500 µM 4-deoxypyridoxine and 1 mM Mg-ATP in assay buffer (100 mM Tris/HCl (pH 7.4), 150 mM NaCl, 2 mM Na3VO4 and 10 mM NaF) for 30 min at 37 °C. A reaction mixture containing no test SphK inhibitor served as the positive control, while a reaction mixture containing no Mg-ATP served as the negative control. Post-incubation, 100 µL of potassium phosphate buffer, pH 8.5, was added to each Eppendorf, followed by 500 µL of 2:1 Chloroform/Methanol. After brief mixing with a vortex, phases were separated by centrifugation at 2000 rpm for 5 min. […] Data are expressed as mean SD from a minimum of 2 independent experiments. […] From this, the IC50 values of several test inhibitors were calculated.

recombinant human SphK1 = recombinant human SphK1 (Homo sapiens, UniProt Q9NYA1); assay: Fluorometric NBD-sphingosine sphingosine kinase inhibition assay, SphK1; settings: for IC50: IC50 against SphK1; for Selectivity between SphK1 and SphK2 (in words): single-concentration screen, SphK1 versus SphK2
Description: as §1, §2

[2] = test system: head and neck squamous cell carcinoma (SCC) cells; set-up: method as in PMID 29109864; settings: cited from earlier work
60 cell lines (NCI) = test system: 60 cell lines (NCI); set-up: method as in NCI cancer-screening platform (NSC796101); settings: ref NCI cancer-screening platform (NSC796101); read-out: Mean GI50 across 60 cell lines; cited from earlier work
[3] = read-out: SphK2 inhibition, 10 μM compound
[4] = read-out: Spk2 % (inhibition), Average, 10 μM, Tables S3-S5
[5] = read-out: Spk2 % (inhibition), replicate A, 10 μM, Tables S3-S5
[6] = read-out: Spk2 % (inhibition), replicate B, 10 μM, Tables S3-S5
[7] = read-out: SphK1 inhibition, 10 μM compound
[8] = read-out: Spk1 % (inhibition), Average, 10 μM, Tables S3-S5
[9] = read-out: Spk1 % (inhibition), replicate A, 10 μM, Tables S3-S5
[10] = read-out: Spk1 % (inhibition), replicate B, 10 μM, Tables S3-S5

Sequence of recombinant human SphK1 (Q9NYA1 whole entry): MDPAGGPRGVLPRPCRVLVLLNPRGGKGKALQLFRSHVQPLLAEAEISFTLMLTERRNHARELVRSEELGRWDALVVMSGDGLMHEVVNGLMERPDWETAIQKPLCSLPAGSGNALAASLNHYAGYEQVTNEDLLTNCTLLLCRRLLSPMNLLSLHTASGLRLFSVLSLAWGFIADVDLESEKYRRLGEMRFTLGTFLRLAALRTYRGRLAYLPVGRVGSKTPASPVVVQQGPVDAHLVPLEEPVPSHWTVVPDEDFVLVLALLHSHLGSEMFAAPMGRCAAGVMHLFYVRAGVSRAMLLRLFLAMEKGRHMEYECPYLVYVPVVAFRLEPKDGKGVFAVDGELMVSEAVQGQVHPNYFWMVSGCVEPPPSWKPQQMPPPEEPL

Compound	inhibition at 10 µM (recombinant human SphK2; [3]) [%]	inhibition at 10 µM (recombinant human SphK2; [4]) [%]	inhibition at 10 µM (recombinant human SphK2; [5]) [%]	inhibition at 10 µM (recombinant human SphK2; [6]) [%]	inhibition at 10 µM (recombinant human SphK1; [7]) [%]	inhibition at 10 µM (recombinant human SphK1; [8]) [%]	inhibition at 10 µM (recombinant human SphK1; [9]) [%]	inhibition at 10 µM (recombinant human SphK1; [10]) [%]	also measured
CC(=O)N(C1=C(Cl)C(=O)c2ccccc2C1=O)C1CCCCC1 [CB5468139]									Ki (SphK1): 0.3 µM; EC50 [1]: 10 to 15 µM; Concentration up to which SphK2 activity is not affected (SphK2): > 100 µM
COc1cccc(OC2=CC(=O)c3ccc(C)nc3C2=O)c1 [Compound 5, 7-(3-Methoxyphenoxy)-2-methylquinoline-5,8-dione]		49.7	50.1	49.3		39.9	37.8	41.5	Mean Growth (%) (NCI-60 cell line panel): 88.5%
Cc1ccc2c(n1)C(=O)C(Oc1ccc(F)c(Cl)c1)=CC2=O [Compound 10, 7-(3-Chloro-4-fluorophenoxy)-2-methylquinoline-5,8-dione]	0	-1.9	-4.7	0.3	0	-7.2	-7.7	-6.5	
Cc1ccc2c(n1)C(=O)C(Oc1ccc(CCO)cc1)=CC2=O [Compound 11, 7-(4-(2-Hydroxyethyl)phenoxy)-2-methylquinoline-5,8-dione]		33.1	31.4	34.5		19	17.6	20.1	
Cc1ccc2c(n1)C(=O)C(Oc1ccc(Br)cc1)=CC2=O [Compound 12, 7-(4-Bromophenoxy)-2-methylquinoline-5,8-dione]									Mean Growth (%) (NCI-60 cell line panel): 90.5%
COc1ccc(OC2=CC(=O)c3ccc(C=O)nc3C2=O)cc1 [Compound 13, 7-(4-Methoxyphenoxy)-5,8-dioxo-5,8-dihydroquinoline-2-carbaldehyde]		39.7	38.1	41.1		14.6	4.3	22.6	
O=Cc1ccc2c(n1)C(=O)C(Oc1ccc(F)c(F)c1)=CC2=O [Compound 18, 7-(3,4-Difluorophenoxy)-5,8-dioxo-5,8-dihydroquinoline-2-carbaldehyde]		-16.4	-19.8	-13.7		-22.7	-26.7	-19.2	
COc1ccc(OC2=CC(=O)c3ccc(CN4CCC[C@@H]4CO)nc3C2=O)cc1 [Compound 20, (R)-2-((2-(Hydroxymethyl)pyrrolidin-1-yl)methyl)-7-(4-methoxyphenoxy)quinoline-5,8-dione]	82	81.6	81.2	81.9	63	63.1	61.7	64.3	IC50 (recombinant human SphK2): 13.2 µM and 13 µM; IC50 (recombinant human SphK1): 42.3 µM and 42 µM
Cc1cc(CS(=O)(=O)c2ccccc2)cc(OCc2ccc(CN3CCC[C@@H]3CO)cc2)c1 [PF-543]									Necrotic SCC cells induced by PF-543 ([2]; with addition of ROS scavenger N-acetyl-L-cysteine): 26.3%; Necrotic SCC cells induced by PF-543 ([2]; without ROS scavenger): 48.6%; inhibition at 0.1 µM (recombinant human SphK2; read-out: Spk2 % Inhibition): 0.7%
O=C(NCc1ccncc1)C12CC3CC(C1)CC(c1ccc(Cl)cc1)(C3)C2 [opaganib, reference compound]	36								GI50 (60 cell lines (NCI)): 11.5 µM; inhibition at 10 µM (recombinant human SphK2; read-out: Spk2 % Inhibition, 10uM, Table S2 assay validation): 35.5%; Ki (SphK2; ref 20-24 (b6), 19, 22): 9.8 µM; inhibition at 10 µM (recombinant human SphK1; read-out: Spk1 % Inhibition, 10uM, Table S2 assay validation): -8.6%; Selectivity between SphK1 and SphK2 (in words) (recombinant human SphK1): high SphK2 selectivity

Second part, led by results:

inhibition at 10 µM (recombinant human SphK2; [3]) [%]	inhibition at 10 µM (recombinant human SphK2; [4]) [%]	inhibition at 10 µM (recombinant human SphK2; [5]) [%]	inhibition at 10 µM (recombinant human SphK2; [6]) [%]	inhibition at 10 µM (recombinant human SphK1; [7]) [%]	inhibition at 10 µM (recombinant human SphK1; [8]) [%]	inhibition at 10 µM (recombinant human SphK1; [9]) [%]	inhibition at 10 µM (recombinant human SphK1; [10]) [%]	Compound	also measured
37	36.8	37.5	36.3	69	69.2	58.5	77.5	COc1ccc(OC2=CC(=O)c3ccc(C)nc3C2=O)cc1 [Compound 4]	Mean Growth (%) (NCI-60 cell line panel): 84.4%; IC50 (recombinant human SphK2): 8.47 µM and 8 µM; IC50 (recombinant human SphK1): 30.2 µM and 30 µM; Selectivity between SphK1 and SphK2 (in words) (recombinant human SphK1): a level of selectivity for SphK1
≥ 56	59.6	58.6	60.4	≥ 54	54.2	53.4	54.8	Cc1ccc2c(n1)C(=O)C(Oc1ccc(F)cc1)=CC2=O [Compound 6, 7-(4-Fluorophenoxy)-2-methylquinoline-5,8-dione]	Mean Growth (%) (NCI-60 cell line panel): 88.2%
≥ 56	55.6	53.6	57.2	≥ 54	54.7	54.1	55.2	Cc1ccc2c(n1)C(=O)C(Oc1ccc(C#N)cc1)=CC2=O [Compound 7, 2-Methyl-7-(4-(cyano)phenoxy)quinoline-5,8-dione]	Mean Growth (%) (NCI-60 cell line panel): 97.3%
	37.8	36	39.2	26	25.3	17	32.1	Cc1ccc2c(n1)C(=O)C(Oc1ccc(Cl)c(Cl)c1)=CC2=O [Compound 8, 7-(3,4-Dichlorophenoxy)-2-methylquinoline-5,8-dione]	
	25.2	27.4	23.5	20	20.3	14.4	25.1	Cc1ccc2c(n1)C(=O)C(Oc1ccc(F)c(F)c1)=CC2=O [Compound 9, 7-(3,4-Difluorophenoxy)-2-methylquinoline-5,8-dione]	
	0.4	-1.7	2		-6.7	-8.6	-4.9	COc1cccc(OC2=CC(=O)c3ccc(C=O)nc3C2=O)c1 [Compound 14, 7-(3-Methoxyphenoxy)-5,8-dioxo-5,8-dihydroquinoline-2-carbaldehyde]	
	22.1	18.1	25.3		11.1	6.2	15.2	O=Cc1ccc2c(n1)C(=O)C(Oc1ccc(F)cc1)=CC2=O [Compound 15, 7-(4-Fluorophenoxy)-5,8-dioxo-5,8-dihydroquinoline-2-carbaldehyde]	
	3.2	6.8	0.3		-0.9	-4.1	1.8	O=Cc1ccc2c(n1)C(=O)C(Oc1ccc(Br)cc1)=CC2=O [Compound 19, 7-(4-Bromophenoxy)-5,8-dioxo-5,8-dihydroquinoline-2-carbaldehyde]	
43	43.2		43.4	70	69.7	62	75.8	O=C1C=C(Oc2ccc(F)cc2)C(=O)c2nc(CN3CCC[C@@H]3CO)ccc21 [Compound 21, (R)-7-(4-Fluorophenoxy)-2-((2-(hydroxymethyl)pyrrolidin-1-yl)methyl)quinoline-5,8-dione]	
